Assay results from patent publication US20240382437A1, “TREATMENT OF ACUTE TISSUE INJURY” (OBVIA PHARMACEUTICALS LTD., priority 2021, published 2024).

Columns and labels:
BN allograft kidneys = assay: Kidney function (serum creatinine and serum BUN) 20 hr after transplant of the BN kidney into a LEW rat; format: in vivo; settings: three IP PrC-210 injections
From the text: Rats either received no PrC-210 (“20 Hr”) or three IP PrC-210 injections in the 20 hr period following transplant (“20 Hr +PrC-210”), before recipient rat was euthanized and serum was collected. P values are indicated. To determine PrC-210 efficacy in suppressing inflammation-generated damage to a transplanted, allograft organ, we used an allograft rat kidney transplant model that largely eliminated the induction of the ischemia and reperfusion insults in transplant, and created only the third inflammation insult by allograft transplanting a kidney from a Brown strain (BN) rat into a recipient Lewis strain (LEW) rat (FIG. 1). PrC-210 was administered both pre-and post-implantation to determine its protective effect in suppressing any inflammation-associated damage to the transplanted BN kidney in the LEW rat. Brown Rat kidneys were flushed with UW solution containing PrC-210 and immediately transplanted into syngeneic Lewis Rat recipients. Ischemic time was virtually eliminated. Immediately following implant, and for 8 hr following kidney implant, recipient rats received systemic PrC-210 injections at doses that would enable continuous free radical-scavenging within the transplanted kidney. […] Serum creatinine and serum BUN were also measured to assess function in the BN allograft kidneys 20 hr after transplant (FIG. 4).

kidney [1] = settings: rodent kidney transplant study; cited from earlier work
Caspase 1 = Caspase 1 in plasma of ICR mice after lethal radiation; format: in vivo; settings: PrC-210 given before or after lethal radiation with 8.68 Gy, FIG. 8
From the text: Caspase 1 is a central activator of acute inflammation in neutrophilic cells, which recruits both T-cells and monocytes and activates apoptosis.

transplanted BN kidney = assay: Histology of transplanted BN kidneys 20 hr after allograft transplant into LEW rats; format: in vivo, rat; settings: 20 hr post-transplant
Procedure: LT (left), RT (right), MTD (Maximum Tolerated Dose), IP (intraperitoneal).
(B,C,D) BN kidneys 20 hr following transplant into LEW rats. “20 hr” control kidneys (B,C) were flushed with room temperature UW Solution prior to transplant, and +PrC-210 kidneys (D) were flushed with room temperature UW Solution containing 30 mM PrC-210 prior to transplant, and recipient LEW rat also received three intraperitoneal systemic PrC-210 doses in the eight hours following transplant. Panel B red arrows highlight tubulitis pathology, and Panel C yellow arrows highlight peritubular capillaritis pathology.
Operator randomly collected sample images of renal tubules from each of the indicated kidney groups in panels A,B,C. Then, using an ImageJ macro, H/E images (e.g., FIG. 3 panels A-C) were analyzed, and above-threshold pink or blue pixels were selected and enumerated, and their ratio was then calculated and plotted to provide an estimate of kidney white blood cell infiltration.
(§1) To determine PrC-210 efficacy in suppressing inflammation-generated damage to a transplanted, allograft organ, we used an allograft rat kidney transplant model that largely eliminated the induction of the ischemia and reperfusion insults in transplant, and created only the third inflammation insult by allograft transplanting a kidney from a Brown strain (BN) rat into a recipient Lewis strain (LEW) rat (FIG. 1). PrC-210 was administered both pre-and post-implantation to determine its protective effect in suppressing any inflammation-associated damage to the transplanted BN kidney in the LEW rat. Brown Rat kidneys were flushed with UW solution containing PrC-210 and immediately transplanted into syngeneic Lewis Rat recipients. Ischemic time was virtually eliminated. Immediately following implant, and for 8 hr following kidney implant, recipient rats received systemic PrC-210 injections at doses that would enable continuous free radical-scavenging within the transplanted kidney. Transplanted kidneys and blood plasma were then harvested 20 hr following transplant to enable measurement of both PrC-210-conferred i) suppression of inflammatory by-products and ii) kidney protection.
The same blinded histology sections were examined for mononuclear white cell infiltration.

Caspase 8 = Caspase 8 in brains of ICR mice after lethal radiation; format: in vivo
From the text: Caspase 8 inhibition (FIG. 9) in the brain after acute injury, such as radiation, is support for less TNF-α activation, and TRL—and FAS receptor upregulation in the brain. […] This supports that inflammation, such as activation of microglia is normalized after PrC-210.

caspase 3,7 = assay: Activated caspase 3,7 activity in post-transplant kidney supernatant, measured enzymatically; format: in vivo, rat; settings: 20 hr after transplant; PrC-210 in UW Solution plus systemic doses; 60 min reaction; FIG. 5
Procedure: Kidney supernatant activated caspase 3,7 activity was measured enzymatically in a 60 min reaction.
as §1

[2] = in vivo; cited from earlier work
TIMP-1 = TIMP-1 ELISA of serum and kidney homogenate 20 hr after transplant; format: in vivo, rat; settings: 20 hr post-transplant, kidney homogenates and sera, FIG. 6
Procedure: (§2) TIMP-1, TNF-alpha and MIP-3A/CCL20 levels were determined by ELISA analysis. P values are indicated.
as §1, with “Immediately following implant, and for 8 hr following kidney implant, recipient rats received systemic PrC-210 injections at doses that would enable continuous free radical-scavenging within the transplanted kidney. Transplanted kidneys and blood plasma were then harvested 20 hr following transplant to enable measurement of both PrC-210-conferred i) suppression of inflammatory by-products and ii) kidney protection.” left out
(§3) In screening experiments, kidney homogenate supernates from 0 hr controls and 20 hr no treatment kidneys were screened with the Proteome Profiler 29 cytokine array to detect altered, inflammation-associated, cytokine and chemokine expression levels 20 hr post-transplant. […] Individual ELISA plates were then used to quantify these changes in kidney homogenates and sera, now including rats treated with PrC-210 as well. […]

kidney [3] = settings: rodent kidney transplant study; cited from earlier work; remark: listed apart in the source
MIP-3a/CCL20 = MIP-3a/CCL20 ELISA 20 hr after transplant; format: in vivo, rat; settings: 20 hr post-transplant, FIG. 6D
Procedure: as §2
as §1, with “Immediately following implant, and for 8 hr following kidney implant, recipient rats received systemic PrC-210 injections at doses that would enable continuous free radical-scavenging within the transplanted kidney. Transplanted kidneys and blood plasma were then harvested 20 hr following transplant to enable measurement of both PrC-210-conferred i) suppression of inflammatory by-products and ii) kidney protection.” left out
as §3

TNF-alpha = TNF-alpha ELISA of serum and kidney homogenate 20 hr after transplant; format: in vivo, rat; settings: 20 hr post-transplant, kidney homogenates and sera, FIG. 6
Procedure: as §2
as §1, with “Immediately following implant, and for 8 hr following kidney implant, recipient rats received systemic PrC-210 injections at doses that would enable continuous free radical-scavenging within the transplanted kidney. Transplanted kidneys and blood plasma were then harvested 20 hr following transplant to enable measurement of both PrC-210-conferred i) suppression of inflammatory by-products and ii) kidney protection.” left out
as §3

For `CNCC(CS)CNC` [PrC-210, 3-(methylamino)-2-(methylaminomethyl) propane-1-thiol], which serum creatinine (BN allograft kidneys; P=0.032, FIG. 4) is on record?
The serum creatinine was “significant reductions”.

And the “serum BUN” value (BN allograft kidneys; P=0.046, FIG. 4)?
The value was “significant reductions”.

What about the “free-radical-induced kidney damage induced during reperfusion injury upon implant” value (kidney [1]) of the same molecule?
Its value is “to background levels”.

What about the “Caspase 1 in plasma” value (Caspase 1) of the same molecule?
Its value is 6-day suppression.

What about the “integrity of the renal tubule brush border epithelium (histology)” value (transplanted BN kidney; PrC-210 via perfusing UW Solution and intraperitoneal injections, FIG. 3) of the same molecule?
The value was “preserved integrity of the renal tubular brush border”.

What about the “Inflammatory Infiltration Score” value (transplanted BN kidney; compared with 0 hr control group, FIG. 3, D) of the same molecule?
Its value is “statistically the same as the 0 hr control group”.

What about the “Banff scores for tubulitis and peritubular capillaritis” value (transplanted BN kidney; kidney perfused with PrC-210-containing UW Solution (30 mM) plus three post-implant intraperitoneal doses, FIG. 2) of the same molecule?
The value was “equal to Banff scores of the “0 Hr” control BN group”.

What about the “mononuclear white cell infiltration (blue pixels)” value (transplanted BN kidney; versus the untreated BN kidneys, P=0.011, FIG. 3) of the same molecule?
The value was “significantly suppressed”.

And the “duration of the effect on Caspase 8” value (Caspase 8; ICR mice brain, lethal radiation with 8.68 Gy)?
The value was “at least six days”.

What about the “Caspase 8 in the brain” value (Caspase 8; ICR mice, PrC-210 given before lethal radiation with 8.68 Gy, FIG. 9) of the same molecule?
The value was “inhibition”.

And the “activated caspase activity in BN kidney homogenates” value (caspase 3,7)?
Its value is “same activated caspase activity to that seen in “O hr” control kidneys”.

What about the hypotension side effects [2] of the same molecule?
Its hypotension side effects is “no measurable”.

And the nausea/emesis side effects [2]?
The nausea/emesis side effects was “no measurable”.

What about the TIMP-1 levels (TIMP-1) of the same molecule?
Its TIMP-1 levels is “decreased”.

And the “free-radical-induced kidney damage induced during 30 hr cold storage” value (kidney [3])?
Its value is “to background levels”.

What about the MIP-3a/CCL20 levels (MIP-3a/CCL20) of the same molecule?
The MIP-3a/CCL20 levels was “increased significantly higher”.

What about the TNF-alpha levels (TNF-alpha) of the same molecule?
The TNF-alpha levels was “decreased”.
